Common to all, as to assay: NCI tumour cell line growth inhibition, 48 h
For assay [1], the system named is A498.
Assay [2] concerns A549.
In assay [3] the test system is ACHN.
The test system of assay [4] is CAKI-1.
In assay [5] the test system is HT-29.
Assay [6] deals with Hs-578T.
For assay [7], the system named is K562.
Assay [8] relates to KM12.
The test system of assay [9] is LOX IMVI.
For assay [10], the system named is M14.
Assay [11] concerns Malme-3M.
Assay [12] deals with NCI-H23.
Assay [13] relates to NCI/ADR-RES.
Assay [14] relates to OVCAR-5.
Assay [15] concerns PC-3.
For assay [16], the system named is SK-OV-3.
For assay [17], the system named is SR.
Assay [18] relates to SW-620.
In assay [19] the test system is UACC-62.
For assay [20], the system named is SNB-75.

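A five-concentration, 48-hour dose response in 96-well plates underlies each endpoint, interpolated linearly between surrounding concentrations. Here, GI50 denotes the concentration required for 50% inhibition of growth.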 Activity calls are given as the source filed them. Rule as the data show it: active = GI50 up to about 1.1 µM and inactive = higher.

On to `COC(=O)CCc1cc(OC)c2oc(-c3ccc(OC)c(OC)c3)c(CO)c2c1`, for which the GI50 in [1], in assay [2], in assay [3], in assay [4], in [5] and in [6] was > 100 µM (inactive) each time. Besides, the GI50 in assay [7], in [8], in [9], in assay [10], in assay [11] and in assay [12] was > 100 µM (inactive) in each case. Besides, the GI50 is > 100 µM (inactive) in assay [13]; > 100 µM (inactive) in assay [14]; > 100 µM (inactive) in [15]; > 100 µM (inactive) in assay [16]; 56 µM (inactive) in assay [17]; > 100 µM (inactive) in assay [18]. The GI50 in assay [19] is > 100 µM (inactive).
`COc1cc(C#CC(=O)OC/C=C/c2ccc3c(c2)OCO3)cc(OC)c1OC`: the GI50 is 5.53 µM (inactive) in assay [1]; 33.7 µM (inactive) in assay [2]; 29.2 µM (inactive) in assay [3]; 22.1 µM (inactive) in assay [4]; > 100 µM (inactive) in [5]; 22.2 µM (inactive) in assay [6]. The GI50 in assay [7] was 28.9 µM (inactive); in assay [8], 30.4 µM (inactive); in assay [9] it was 20.1 µM (inactive); in [10], 24 µM (inactive); in assay [11], 20.7 µM (inactive); in assay [12] it was 25.2 µM (inactive). The GI50 in assay [13] was 20 µM (inactive); in [14], 35.6 µM (inactive); in assay [15] it was 21.8 µM (inactive); in assay [16], 27.6 µM (inactive); in [17], 16.7 µM (inactive); in assay [18], 27.5 µM (inactive). For the same compound, the GI50 in [19] was 18.8 µM (inactive).
For `Cc1cc(S(=O)(=O)N=C2NCC(C)(C)CN2)c(S)cc1Cl`, the GI50 is > 100 µM (inactive) in [1]; 19 µM (inactive) in assay [2]; 24.1 µM (inactive) in assay [3]; 52 µM (inactive) in [4]; 19.3 µM (inactive) in assay [5]; 32 µM (inactive) in assay [6]. Also, the GI50 is 25.5 µM (inactive) in [7]; 30.8 µM (inactive) in [8]; 15.5 µM (inactive) in assay [9]; 31.9 µM (inactive) in assay [10]; 44.7 µM (inactive) in [11]; 50.8 µM (inactive) in assay [13]. Besides, the GI50 in assay [14] was 23.1 µM (inactive); in assay [15], 30.3 µM (inactive); in [16], > 100 µM (inactive); in assay [20] it was 48.5 µM (inactive); in [17], 37.9 µM (inactive); in assay [18], 17.9 µM (inactive). In addition, the GI50 in [19] is 25.3 µM (inactive).
In the case of `CC1(C)OC1CC/C(=C/CBr)CBr` (stereo not given), the GI50 in assay [1] was 21.4 µM (inactive); in assay [2] it was 21.3 µM (inactive); in assay [3], 16.9 µM (inactive); in assay [4], 17.9 µM (inactive); in assay [5] it was 14.9 µM (inactive); in assay [6] it was 17.5 µM (inactive). The GI50 in assay [7] was 15.8 µM (inactive); in [8], 16 µM (inactive); in assay [9] it was 10.2 µM (inactive); in assay [10], 19.8 µM (inactive); in assay [11] it was 22.3 µM (inactive); in [12] it was 15.5 µM (inactive). Moreover, the GI50 in [13] was 18.8 µM (inactive); in [14] it was 17.5 µM (inactive); in assay [15] it was 15.6 µM (inactive); in [16], 19 µM (inactive); in assay [20] it was 6.82 µM (inactive); in [17] it was 13.8 µM (inactive). Further, in assay [18], the GI50 was 15 µM (inactive).
Regarding `Cc1ccc2c(c1)C(O)(c1ccccc1)CCS2` (stereo not given), the GI50 in [2] was 32.8 µM (inactive); in [3] it was 27.2 µM (inactive); in assay [4], 22 µM (inactive); in assay [5], 25.4 µM (inactive); in assay [6] it was 34.1 µM (inactive); in assay [7], 20.2 µM (inactive). Besides, the GI50 in [8] was 22.6 µM (inactive); in assay [9], 19.9 µM (inactive); in [10], 25.4 µM (inactive); in assay [11], 32.9 µM (inactive); in [12] it was 28.5 µM (inactive); in assay [13], 34 µM (inactive). Moreover, the GI50 in assay [14] was 27.6 µM (inactive); in assay [15], 25.8 µM (inactive); in assay [16] it was > 100 µM (inactive); in assay [20], 48.2 µM (inactive); in assay [17] it was 18.3 µM (inactive); in assay [18] it was 31 µM (inactive). Moreover, the GI50 in assay [19] is 22.4 µM (inactive).
Consider `O=C(NC(Nc1ccc(F)c(Cl)c1)(C(F)(F)F)C(F)(F)F)C(C(F)(F)F)C(F)(F)F`, for which the GI50 in [1] is 44.3 µM (inactive); in assay [2] it was 27.2 µM (inactive); in assay [3], 13.5 µM (inactive); in assay [4], 32.4 µM (inactive); in [5], 21.9 µM (inactive); in [6], 17.6 µM (inactive). For the same compound, the GI50 in assay [7] is 14.5 µM (inactive); in [8] it was 17.9 µM (inactive); in assay [9], 12 µM (inactive); in assay [10] it was 21.9 µM (inactive); in assay [11], 19.1 µM (inactive); in assay [12], 23.3 µM (inactive). For the same compound, the GI50 in assay [13] is 19.8 µM (inactive); in [14], 23.9 µM (inactive); in assay [15], 24.8 µM (inactive); in assay [16] it was 52.7 µM (inactive); in assay [17] it was 28.2 µM (inactive); in assay [18] it was 22.1 µM (inactive).
On to `O=C(N/C(=C/c1ccc(Cl)cc1Cl)c1nc2ccccc2s1)c1ccccc1`, for which the GI50 in assay [2] is 18.1 µM (inactive); in assay [3], 6.56 µM (inactive); in assay [4], 15.8 µM (inactive); in assay [5], 19.3 µM (inactive); in assay [6], 12.1 µM (inactive); in assay [7] it was 18.5 µM (inactive). Besides, the GI50 is 13.2 µM (inactive) in [8]; 5.32 µM (inactive) in assay [9]; 17.7 µM (inactive) in assay [10]; 16.4 µM (inactive) in assay [11]; 11.8 µM (inactive) in assay [12]; 15.6 µM (inactive) in assay [13]. The GI50 in [14] was 17.3 µM (inactive); in assay [15], 18 µM (inactive); in assay [16], 24.3 µM (inactive); in assay [20], 17.9 µM (inactive); in assay [17], 9.27 µM (inactive); in assay [18], 10.7 µM (inactive). Also, the GI50 in assay [19] is 16.6 µM (inactive).
`O=C(Nc1nnc(-c2ccccc2)o1)C(SC(=S)N1CCCC1)c1ccccc1` (stereo not given): the GI50 in [1] is 27.1 µM (inactive); in assay [2], 26.4 µM (inactive); in [3] it was 26.2 µM (inactive); in [4] it was 29.9 µM (inactive); in assay [5], 35.1 µM (inactive); in assay [6] it was 87.9 µM (inactive). In addition, the GI50 in assay [7] was 24.4 µM (inactive); in assay [8], 32.8 µM (inactive); in assay [9], 14.1 µM (inactive); in [10], 23.6 µM (inactive); in [11], 45 µM (inactive); in assay [12], 24.3 µM (inactive). In addition, the GI50 in [13] was 6.67 µM (inactive); in assay [14], 36.4 µM (inactive); in assay [15] it was 27.8 µM (inactive); in assay [16] it was 36.8 µM (inactive); in assay [20], 40.8 µM (inactive); in assay [17], 20.1 µM (inactive). Besides, the GI50 in [18] was 49.1 µM (inactive).
For the compound `CCC(=O)O[C@H]1CC[C@H]2[C@@H]3CCC4=CC(=O)C=C[C@]4(O)[C@H]3CC[C@]12C`, the GI50 in assay [1] was > 100 µM (inactive); in assay [2] it was 16.1 µM (inactive); in assay [3], 55.7 µM (inactive); in assay [4], 24.3 µM (inactive); in assay [5], 19.1 µM (inactive); in assay [6], 39.5 µM (inactive). In addition, the GI50 is 3.39 µM (inactive) in assay [7]; 18.5 µM (inactive) in assay [8]; 16.7 µM (inactive) in [9]; 22.5 µM (inactive) in [10]; 48 µM (inactive) in assay [11]; 22 µM (inactive) in assay [12]. Also, the GI50 in [13] was 37 µM (inactive); in assay [14] it was 87.5 µM (inactive); in [15] it was 23.8 µM (inactive); in assay [16] it was 82.6 µM (inactive); in assay [17], 2.67 µM (inactive); in [18] it was 17.9 µM (inactive). In addition, the GI50 in assay [19] is 15.4 µM (inactive).
On to `NCCc1ccc(S(=O)(=O)O)cc1[N+](=O)[O-]`, for which the GI50 in assay [1], in assay [2], in [3], in assay [4], in assay [5] and in assay [6] was > 100 µM (inactive) each time. Besides, the GI50 in [8], in assay [9], in assay [10], in assay [11], in assay [12] and in assay [13] was > 100 µM (inactive) throughout. Moreover, the GI50 in assay [14] was > 100 µM (inactive); in [15] it was > 100 µM (inactive); in assay [16] it was > 100 µM (inactive); in [20] it was > 100 µM (inactive); in [17], 4.71 µM (inactive); in assay [18] it was > 100 µM (inactive). The GI50 in assay [19] is > 100 µM (inactive).
Take `CC[C@]12C=CCN3CCC4(c5cc([C@@]6(C(=O)OC)CC7CN(CCc8c6[nH]c6ccccc86)C[C@@H]6CCCC[C@H]76)c(OC)cc5N(C)C4[C@](O)(C(=O)OC)C1OC(C)=O)[C@@H]32` (stereo not given in full): the GI50 in assay [1], in assay [2], in assay [3], in assay [5], in assay [6] and in assay [8] was < 0.01 µM (active) each time. In addition, the GI50 was < 0.01 µM (active) in [9]; < 0.01 µM (active) in assay [10]; < 0.01 µM (active) in [11]; < 0.01 µM (active) in assay [12]; 0.0148 µM (active) in assay [13]; < 0.01 µM (active) in [15]. Also, the GI50 in assay [16], in [17], in assay [18] and in assay [19] was < 0.01 µM (active) in each case.

The values above are taken from ChEMBL document CHEMBL1201862, “PubChem BioAssay data set” (2004).
